Article PMC12406255, “Engineering Peptide Modulators for T‑Cell Migration by Structural Scaffold Matching” (Journal of Medicinal Chemistry, 2025)
Positions of bridges follow the written chain, without caps; N, C: chain ends. Non-standard residues stand in square brackets, D forms with d. Residues, ends and D or L forms follow the SMILES beside them. Nle = CCCC[C@H](N)C(=O)O

Legend:
[1] = tested on: CD4+ cells of MS patients; experiment: Transwell migration assay with PBMC of MS patients, CD4+ cells; format: cell-based, human; conditions: PBMC of treatment-naive MS patients; p = 0.0005
Procedure: (§1) 5 Activity of the novel VhTI-pep 2 and pepitem on patient lymphocytes. PPBMCs were isolated from the blood of MS patients with a very recent disease flare receiving no immunosuppressive or immunomodulatory treatment in the past. The effect of the linear pepitem and VhTI-pep 2 was tested for the T-cell populations (A) CD3^+, (B) Th1, (C) CD4^+, (D) memory CD4^+, (E) CD8^+, and (F) memory CD8^+ cells. Data are shown as mean ± SD for 4 independent measurements. Statistical analysis was performed on the level of total counted cells using repeated measures one-way ANOVA with Dunnett’s post hoc test. Statistical significance is indicated as n.s. (not significant), * p < 0.05; ** p < 0.01; *** p < 0.001.
(§2) Human microvascular endothelial cells (HMEC-1 cells, Cytion, Eppelheim, Germany) were cultured in MCDB-131 medium (with 2.2 g/L sodium bicarbonate, without L-glutamine, PAN-Biotech Aidenbach, Germany) supplemented with 10% fetal bovine serum (FBS, Capricorn Scientific, Ebsdorfergrund, Germany), 100 units/ml penicillin-streptomycin (Sigma-Aldrich) 10 ng/mL epidermal growth factor (BioLegend, San Diego, US), 1 μg/mL hydrocortisone (Sigma-Aldrich), and 10 mM L-glutamine (Sigma-Aldrich). For experiments, the cells were used between passage numbers 4–9. […]

[2] = tested on: Th1 lymphocytes (CD3+, CD4+, CXCR3+, CCR6-) of MS patients; experiment: Transwell migration assay with PBMC of MS patients, Th1 cells; format: cell-based, human; conditions: PBMC of treatment-naive MS patients; mean ± SD, 4 independent measurements; p = 0.048
Procedure: as §1, §2

`CCCC[C@@H]1NC(=O)[C@H](C(C)C)NC(=O)[C@H](CCCCN)NC(=O)[C@@H](NC(=O)[C@H](CCC(N)=O)NC(=O)[C@H](CCC(=O)O)NC(C)=O)CSSC[C@@H](C(=O)N[C@@H](CCC(=O)O)C(=O)N[C@@H](CCCCN)C(N)=O)NC(=O)[C@H](CC(N)=O)NC(=O)[C@H](CC(=O)O)NC(=O)[C@H](CC(C)C)NC(=O)[C@@H]2CSSC[C@H](NC1=O)C(=O)N[C@@H](Cc1ccc(O)cc1)C(=O)N[C@@H](C)C(=O)N[C@@H](CCC(N)=O)C(=O)NCC(=O)N[C@@H](C)C(=O)N[C@@H](CCC(=O)O)C(=O)N[C@@H](CC(C)C)C(=O)N1CCC[C@H]1C(=O)N[C@@H](CCC(=O)O)C(=O)N[C@@H](CC(C)C)C(=O)N[C@@H](CC(C)C)C(=O)N[C@@H](CCCNC(=N)N)C(=O)N[C@@H](CCCNC(=N)N)C(=O)N2` [VhTI-pep 2] (Ac-EQCKV[Nle]CYAQGAELPELLRRCLDNCEK-NH2; disulfide 3-25, 7-21) was tested, and the “migration of CD4+ cells of MS patients (in words)” value [1] was “significantly reduced” and the “inhibition of migration of Th1 lymphocytes” value [2] was 34.3 ± 11.4%.
